Test results as given in patent publication US20110002820A1, “EXTERIOR SURFACE TREATMENT SYSTEM” (priority 2008, published 2011).

Experiments:
Type in all cases: cell-based
Anabaena cylindrica = test: Algistatic concentration against algae
Chlorella vulgaris = test: Algistatic concentration against algae
Oscillatoria tenius = test: Algistatic concentration against algae
Stiegeocionim sp. = test: Algistatic concentration against algae
Chaetomium globosum = test: Fungicidal activity, minimum inhibitory concentration against fungi
Myrothecium verrucaria = test: as above
Trichoderma viridae = test: as above
Aspergillus niger = test: as above

| Compound | Algistatic concentration (Anabaena cylindrica) [ppm] | Algistatic concentration (Chlorella vulgaris) [ppm] | Algistatic concentration (Oscillatoria tenius) [ppm] | Algistatic concentration (Stiegeocionim sp.) [ppm] | MIC (Chaetomium globosum) [µg/mL] | MIC (Myrothecium verrucaria; Albifimbria verrucaria) [µg/mL] | MIC (Trichoderma viridae) [µg/mL] | MIC (Aspergillus niger) [µg/mL] | Minimum inhibitory concentration (Chaetomium globosum) [ppm] | Minimum inhibitory concentration (Myrothecium verrucaria) [ppm] | Minimum inhibitory concentration (Trichoderma viridae) [ppm] | Minimum inhibitory concentration (Aspergillus niger) [ppm] |
| --- | --- | --- | --- | --- | --- | --- | --- | --- | --- | --- | --- | --- |
| CCCCCCCCCC[N+](C)(C)CCCCCCCCCC.[Cl-] [DDAC, didecyl dimethyl ammonium chloride] | 0.2 | 2.0 | 0.7 | 0.7 | 7 | 20 | 20 | 75 | – | – | – | – |
| benzalkonium chloride [BAC] | 1.0 | 1.0 | 0.6 | 0.7 | – | – | – | – | 7 | 150 | 75 | 75 |
